Drawing on ChEMBL document CHEMBL5726800, “Indazole and azaindazole Btk inhibitors” (2019), this text covers IC50 for one compound.

As usually defined, the IC50 is the concentration that gives 50% inhibition.

SMILES strings stand for the structures.

The target in experiment [1] is T1, Tyrosine-protein kinase BTK (Homo sapiens, UniProt Q06187). Put plainly: 25P Btk Enzyme Activity Assay: Btk enzymatic activity was determined with the LANCE (Lanthanide Chelate Excite) TR-FRET (lime-resolved fluorescence resonance energy transfer) assay. […] To each well of a black non-binding surface Corning 384-well microplate (Corning Catalog #3820), 5 nL of compound (2000 fold dilution in final assay volume of 10 μL) was dispensed, followed by the addition of 7.5 μL of 1× kinase buffer (50 mM Hepes 7.5, 10 mM MgCl2, 0.01% Brij-35, 1 mM EGTA, 0.05% BSA and 1 mM DTT) containing 26.67 pg/μL (266.7 pM) of 25P Btk enzyme (recombinant protein from baculovirus-transfected Sf9 cells: full-length Btk; MW=79378 Da). Following a 60 minute compound and enzyme incubation, each reaction was initiated by the addition of 2.5 μL 1× kinase buffer containing 8 μM biotinylated “A5” peptide (Biotin-EQEDEPEGDYFEWLE-NH2), and 100 μM ATP. The final reaction in each well of 10 consists of 200 pM 25P Btk, 2 μM biotin-A5-peptide, and 25 μM ATP. Phosphorylation reactions were allowed to proceed for 120 minutes. Reactions were immediately quenched by the addition of 20 uL of 1× quench buffer (15 mM EDTA, 25 mM Hepes 7.3, and 0.1% Triton X-100) containing detection reagents (0.626 nM of LANCE-Eu-W1024-anti-phosphoTyrosine antibody, PerkinElmer and 86.8 nM of Streptavidin-conjugated Dylight 650, Dyomics/ThermoFisher Scientific). […]. (In general: In TR-FRET formats the signal depends on donor and acceptor labels being close together.)

The target of experiment [2] is T1, Tyrosine-protein kinase BTK. Put plainly: 100P Btk Enzyme Activity Assay: Btk enzymatic activity was determined with the LANCE (Lanthanide Chelate Excite) TR-FRET (lime-resolved fluorescence resonance energy transfer) assay. […] To each well of a black non-binding surface Corning 384-well microplate (Corning Catalog #3820), 5 nL of compound (2000 fold dilution in final assay volume of 10 μL) was dispensed, followed by the addition of 7.5 μL of 1× kinase buffer (50 mM Hepes 7.5, 10 mM MgCl2, 0.01% Brij-35, 1 mM EGTA, 0.05% BSA & 1 mM DTT) containing 13.3 pg/μL (133.3 pM) of 100P Btk enzyme (recombinant protein from baculovirus-transfected Sf9 cells: full-length Btk; MW=79378 Da). Following a 60 minute compound and enzyme incubation, each reaction was initiated by the addition of 2.5 μL 1× kinase buffer containing 8 μM biotinylated “A5” peptide (Biotin-EQEDEPEGDYFEWLE-NH2) (SEQ.ID.NO.: 1) and 100 μM ATP. The final reaction in each well of 10 consists of 100 pM 100P Btk, 2 μM biotin-A5-peptide, and 25 μM ATP. Phosphorylation reactions were allowed to proceed for 45 minutes. Reactions were immediately quenched by the addition of 20 uL of 1× quench buffer (15 mM EDTA, 25 mM Hepes 7.3, and 0.1% Triton X-100) containing detection reagents (0.626 nM of LANCE-Eu-W1024-anti-phosphoTyrosine antibody, PerkinElmer and 86.8 nM of Streptavidin-conjugated Dylight 650, Dyomics/ThermoFisher Scientific). […].

T1 sequence (Q06187 whole entry): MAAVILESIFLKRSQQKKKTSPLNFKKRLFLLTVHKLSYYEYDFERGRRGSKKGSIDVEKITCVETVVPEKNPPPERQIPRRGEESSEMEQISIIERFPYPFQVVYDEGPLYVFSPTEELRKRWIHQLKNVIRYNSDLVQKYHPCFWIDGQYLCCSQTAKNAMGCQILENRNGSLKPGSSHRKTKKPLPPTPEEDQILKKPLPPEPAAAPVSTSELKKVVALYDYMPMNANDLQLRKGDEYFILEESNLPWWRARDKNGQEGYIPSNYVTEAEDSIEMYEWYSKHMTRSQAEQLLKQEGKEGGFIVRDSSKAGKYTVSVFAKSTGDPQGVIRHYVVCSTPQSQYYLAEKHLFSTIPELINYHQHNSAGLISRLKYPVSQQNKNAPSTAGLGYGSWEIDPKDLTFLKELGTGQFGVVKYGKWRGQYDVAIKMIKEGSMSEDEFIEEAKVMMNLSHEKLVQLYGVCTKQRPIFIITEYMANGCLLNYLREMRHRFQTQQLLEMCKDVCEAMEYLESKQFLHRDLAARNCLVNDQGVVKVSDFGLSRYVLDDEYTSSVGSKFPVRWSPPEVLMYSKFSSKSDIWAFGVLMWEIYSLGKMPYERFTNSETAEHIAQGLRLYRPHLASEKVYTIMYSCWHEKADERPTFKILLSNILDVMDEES

`Cc1c(NC(=O)c2ccc(C(C)(C)C)cc2F)cccc1-c1cc(-c2cnn(C)c2)c2[nH]nc(N)c2c1`: the IC50 is 23.8 nM in experiment [1] and ≥ 1000 nM in experiment [2].
